System: dox-dependent SWS virus
Assay: Sensitivity of HIV-rtTA (SWS) replication to antiretroviral drugs in SupT1 cells
Type: cell-based, HIV-1
Settings: infected SupT1 cells maintained in the presence of dox
Method: FIG. 4. Replication of HIV-rtTA can be turned on and turned off. These experiments were performed with the SWS virus, but similar results have been obtained with the other HIV-rtTA variants. The SWS virus was used (2200 ng CA-p24) to infect 6×10^6 SupT1 cells at day 0. […] In panel B, the effect of delayed addition of dox (1000 ng/ml) was analyzed at day 3 after infection. In panel C, the infected cells were grown in 1000 ng/ml dox for 3 days, at which point the cells were washed and incubated in the absence or presence of dox. In panel D, infected cells were maintained in the presence of dox and the effect of the Protease-inhibitor Saquinavir (200 nM) and the RT-inhibitor AZT ([…]) was tested.
As an additional safety test, the sensitivity of the HIV-rtTA virus to antiretroviral drugs that are in current clinical use was analyzed. Because the basic set of viral genes in HIV-rtTA was not altered, including the genes encoding Protease (Pro) and Reverse Transcriptase (RT), these viruses are expected to remain fully sensitive to well-known drugs that target these essential enzymes.

## Cc1cn([C@H]2C[C@H](N=[N+]=[N-])[C@@H](CO)O2)c(=O)[nH]c1=O [AZT, 3′-azido, 3′-deoxythymidine]
AZT 1 μg
  inhibition of SWS virus replication: inhibited efficiently

## CC(C)(C)NC(=O)[C@@H]1C[C@@H]2CCCC[C@@H]2CN1C[C@@H](O)[C@H](Cc1ccccc1)NC(=O)[C@H](CC(N)=O)NC(=O)c1ccc2ccccc2n1 [Saquinavir]
Saquinavir 200 nM
  inhibition of SWS virus replication: inhibited efficiently

From US20030099613A1, “Viral replicons and viruses dependent on inducing agents” (priority 1999, published 2003)
